# Reference: patent publication US8771687B2, “Methods for treating a tumor using an antibody that specifically binds GRP94” (University of Pittsburgh—Of the Commonwealth System of …, priority 2010, dated 2014)
# How the values were obtained:
# [1] = test system: BRAF mutated advanced melanoma; details: cited from earlier work
# [2] = test system: advanced melanoma with the V600E BRAF mutation; details: patients with the V600E BRAF mutation, Phase I; cited from earlier work
# [3] = test system: V600E mutated melanoma cell lines sensitive to BRAF-I; test: Development of secondary resistance on in vitro treatment with increasing doses, MTT assay; assay type: cell-based, human; details: increasing doses (2.5-10 μM)
# Experimental: The cell line M21 (harboring the V600E BRAF missense mutation) (4×10^5/well) was cultured in a 6-well plate containing RPMI 1640 medium supplemented with 10% FBS and 2.5 μM of PLX4720. Medium was changed every 4 days. On the 8th day the concentration of PLX4720 was increased to 5 μM. Cells were cultured under these conditions for 12 days changing the medium every 4 days. Then the concentration of PLX4720 in the medium was increased to 10 μM, and the medium has been changed every 3 days. Cells were cultured until when resistant colonies appeared (around 3 weeks). Cells were tested for resistance to BRAF-I PLX4720 by analyzing their growth in the presence of 10 μM of PLX4720, using the MTT assay.
# [4] = test system: GRP94 expression by M21 melanoma cell line; test: Effect of BRAF-I on GRP94 expression, staining with mAb W9, flow cytometry; assay type: cell-based, human; details: M21 cells, 1 μM of PLX4720, 14 days, vs untreated cells
# Experimental: Effect of BRAF-I on GRP94 expression by M21 melanoma cell line. Cells (2×10^5/ml) were incubated in RPMI 1640 medium containing 10% FCS with 1 μM of BRAF-I for 14 days. […] Untreated cells were used as control. Percentage of stained cells and mean fluorescence intensity (MFI) are indicated.
# M21 cells were cultured in RPMI 1640 medium supplemented with 10% FBS and 1 μM of PLX4720. Cells were harvested after 14 days of culture, and washed twice with PBS-BSA. Cells (1×10^5/sample), and were stained with 1 μg of anti-GRP94 mAb W9. Human IgG (HIg) and untreated cells were used as controls. Following an incubation of 30 min at 4° C., cells were washed three times with PBS containing 2% of BSA (PBS-BSA). Cells were then incubated with an appropriate dilution of PE-conjugated anti-human IgG for 30 min at 4° C. Cells were washed and fixed with 2% PFA. Immunofluorescence was measured using a Cyan cytofluorimeter.
# M21 cells were cultured in RPMI 1640 medium supplemented with 10% FBS and 1 μM of PLX4720. Cells were harvested after 14 days of culture, and washed twice with PBS-BSA. Cells (1×10^5/sample), and were stained with 1 μg of anti-GRP94 mAb W9. Human IgG (HIg) and untreated cells were used as controls. Following an incubation of 30 min at 4° C., cells were washed three times with PBS containing 2% of BSA (PBS-BSA). […]
SMILES,"response rate ([1]; 32 BRAF mutated advanced melanoma patients, phase II study)","median duration of response ([1]; patients, secondary resistance)",tumor regression and overall survival [2],time of in vitro treatment until cell lines became secondary resistant [3],expression of GRP94 [4]
"CCCS(=O)(=O)Nc1ccc(F)c(C(=O)c2c[nH]c3ncc(-c4ccc(Cl)cc4)cc23)c1F [PLX4032, Vemurafenib]",70%,~8 months,effective in promoting tumor regression and increasing overall survival,–,–
CCCS(=O)(=O)Nc1ccc(F)c(C(=O)c2c[nH]c3ncc(Cl)cc23)c1F [PLX4720],–,–,–,3-4 week,increased expression of GRP94
